From patent US8835510B2, “Methods and compositions for treating conditions mediated by oxidative stress or electrophilic environmental toxins” (priority 2010, dated 2014)
“Also recorded” adds a separate entry of the source.

Key:
[1] = Cell viability (trypan blue) in H2O2-exposed MN9D cultures; conditions: mouse, MN9D cells
Description: (§1) As a more complex biological model, a determination was made of the relative abilities of the 1,3-dicarbonyls to protect MN9D cells, a dopaminergic cell line, from acrolein- (FIG. 6) or hydrogen peroxide (H2O2)-induced cell death (FIG. 7). Briefly, two days after plating, cells were incubated with AcAc (750 μM) for one hr followed by exposure to graded concentrations of either acrolein (0.50-150 μM×24 hrs) or H2O2 (50-750 μM×24 hrs). Cell viability was determined by trypan blue (0.1%) exclusion. Living cells were counted in a hemocytometer and total cells per dish were calculated.
(§2) This system represents a more complete model of oxidative stress since the hydroxyl radical formed from intracellular H2O2 during the Fenton reaction, subsequently mediates the generation of toxic aldehyde by-products such as acrolein and 4-hydroxy-2-nonenal (HNE).

[2] = pKa and enolate ionization of enol compounds; assay type: physicochemical
[3] = Kinetic assay of acrolein-induced N-acetyl cysteine (NAC) sulfhydryl loss (DTNB method)
Text: As an index of cytoprotection, these studies focused on the abilities of 1,3-dicarbonyl compounds to prevent electrophile-induced loss of protein and non-protein sulfhydryl groups. This experimental focus is based on substantial evidence that soft electrophiles, like acrolein, produce toxicity by forming Michael-type adducts with soft nucleophilic thiolate (anionic sulfhydryl) groups on functionally critical proteins^9, 17, 22, 56, 57 (reviewed in^28, 58, 62, 77, 94). […] To test this hypothesis, a determination was made of the ability of AcAc and other structurally related enol analogs to prevent sulfhydryl (nucleophile) adduction by acrolein (electrophile)^56. […] Free sulfhydryl concentrations were determined over time (up to 15 mins) by the DTNB method of LoPachin et al.^52.
Therefore, as a kinetic index of competitive thiol protection by enolate sequestration, the relative in vitro abilities of 1,3-dicarbonyl compounds and phloretin to slow the rate of acrolein-induced sulfhydryl loss were measured.

MN9D cells [4] = assay: Cell viability (trypan blue) in acrolein-exposed MN9D cultures; conditions: pre-incubation 60 minutes, 750 μM each (phloretin 100 μM)
Description: as §1

MN9D cells [5] = assay: Cell viability (trypan blue) in H2O2-exposed MN9D cultures; conditions: test compound 750 μM (phloretin 100 μM)
Description: as §1, §2

[6] = Free radical scavenging (DPPH absorbance method of Ak and Gulcin)
Description: The relative abilities of selected 1,3-dicarbonyl compounds to scavenge free radicals were determined using the spectrophotometric method of Ak and Gulcin (2008)^4 that measures changes in the absorbance of the 2,2-diphenyl-1-picrylhydrazyl radical.

[7] = Ferrous ion chelation (method of Dairam et al.)
[8] = Cytotoxicity of test compound alone in MN9D cultures; conditions: mouse, MN9D cells
MN9D cells [9] = assay: as above; conditions: 100 μM
[10] = test system: control striatal synaptosomes; assay: In vitro toxicity: radiolabeled dopamine (DA) membrane transport in control striatal synaptosomes; conditions: FIG. 4

SMILES	CC50 at 24 h [1] [µM]	pKa [2]	rate of sulfhydryl loss (mean rate±SE) ([3]; NAC + acrolein 150 μM + test compound 50 μM co-incubated, Krebs buffer pH 7.4, 30° C.) [nmol SH sec^−1]	sulfhydryl (NAC) protection, pre-incubation ([3]; acrolein pre-incubated with test compound, NAC added one hour later)	sulfhydryl (NAC) protection, co-incubation ([3]; all chemicals added simultaneously)	protection against acrolein-induced cell death (words) (MN9D cells [4])	protection against acrolein-induced cell death (words) (MN9D cells [4]; listed as Phloretin)	protection against H2O2-induced cell death (MN9D cells [5])	DPPH radical scavenging [6]	Fe^2+ chelating activity [7]	CC50 [8] [µM]	MN9D cell death / cell loss by compound alone (MN9D cells [9]) [%]	MN9D cell death / cell loss by compound alone (MN9D cells [9]; listed as Phloretin) [%]	synaptosomal toxicity of compound alone, DA transport (words, IC50 magnitude) [10]
OO [H2O2, hydrogen peroxide]	254													
O=C(CCc1ccc(O)cc1)c1c(O)cc(O)cc1O [phloretin, reference compound]		7.3	−1.9±0.7	significant thiol protection	only marginally protective	did not protect	did not provide cytoprotection	potentiated H2O2 toxicity	relatively weak DPPH. scavengers	little, if any, Fe^2+ chelating activity	362	~50	42	relatively significant in vitro toxicity; also recorded: significant synaptosomal toxicity
